Legend:
AR-VP16 [1] = target: T1, AR-VP16 (Homo sapiens, UniProt P10275); assay: AR-VP16 DNA Binding Assay, agonist mode (HepG2 cells); type: cell-based; details: Emax >20x DMSO control = agonist
T1 sequence (P10275 560-920 limits assumed): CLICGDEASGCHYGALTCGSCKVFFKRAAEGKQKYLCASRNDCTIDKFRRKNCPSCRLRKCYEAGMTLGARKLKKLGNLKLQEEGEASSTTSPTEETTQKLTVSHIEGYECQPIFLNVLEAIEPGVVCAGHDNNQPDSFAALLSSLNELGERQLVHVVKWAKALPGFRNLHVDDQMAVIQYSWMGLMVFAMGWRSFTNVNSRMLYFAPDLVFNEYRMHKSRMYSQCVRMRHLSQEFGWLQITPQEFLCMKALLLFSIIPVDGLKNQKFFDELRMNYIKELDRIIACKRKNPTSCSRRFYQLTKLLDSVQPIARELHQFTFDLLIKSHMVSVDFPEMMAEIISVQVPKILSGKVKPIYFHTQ

AR-VP16 [2] = target: T1, AR-VP16; assay: AR-VP16 DNA Binding Assay, antagonist mode (HepG2 cells, 0.1 nM R1881); type: cell-based
Outline: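 Transfected HepG2 cells expressing AR-VP16 received serially diluted compound in charcoal-stripped-serum RPMI the day after transfection, with 0.1 nM R1881 (final) added only for antagonist testing. After 48 h, cells were lysed for measurement.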

COCCCNC(=O)c1ccc(N2C(=S)N(c3cnc(C#N)c(C(F)(F)F)c3)C(=O)C23CCC3)cc1F [Compound 249, 4-(7-(6-Cyano-5-(trifluoromethyl)pyridin-3-yl)-8-oxo-6-thioxo-5,7-diazaspiro[3.4]octan-5-yl)-2-fluoro-N-(3-methoxypropyl)benzamide]
ARVP16 DNA Binding Assay (Agonist mode): Agonist? (AR-VP16 [1]): No (Agonist defined as a compound whose Emax in the ARVP16 DNA Binding Assay (Agonist mode) is >20x DMSO control)
IC50 (AR-VP16 [2]): < 1000 nM

CNC(=O)c1ccc(N2C(=S)N(c3cnc(C#N)c(C)c3)C(=O)C23CCC3)cc1 [Compound 78, 4-(7-(6-Cyano-5-methylpyridin-3-yl)-8-oxo-6-thioxo-5,7-diazaspiro[3.4]octan-5-yl)-N-methylbenzamide]
ARVP16 DNA Binding Assay (Agonist mode): Agonist? (AR-VP16 [1]): No (Agonist defined as a compound whose Emax in the ARVP16 DNA Binding Assay (Agonist mode) is >20x DMSO control)
IC50 (AR-VP16 [2]): > 1000 nM

Cc1cc(N2C(=O)C3(CCC3)N(c3ccc(C(=O)Nc4ccc(Cl)cc4)c(F)c3)C2=S)cnc1C#N [Compound 296, N-(4-Chlorophenyl)-4-(7-(6-cyano-5-methylpyridin-3-yl)-8-oxo-6-thioxo-5,7-diazaspiro[3.4]octan-5-yl)-2-fluorobenzamide]
ARVP16 DNA Binding Assay (Agonist mode): Agonist? (AR-VP16 [1]): No (Agonist defined as a compound whose Emax in the ARVP16 DNA Binding Assay (Agonist mode) is >20x DMSO control)
IC50 (AR-VP16 [2]): < 1000 nM

N#Cc1ncc(N2C(=O)C3(CCC3)N(c3ccc(C(=O)NCCc4ccccc4)c(F)c3)C2=S)cc1C(F)(F)F [Compound 257, 4-(7-(6-Cyano-5-(trifluoromethyl)pyridin-3-yl)-8-oxo-6-thioxo-5,7-diazaspiro[3.4]octan-5-yl)-2-fluoro-N-phenethylbenzamide]
ARVP16 DNA Binding Assay (Agonist mode): Agonist? (AR-VP16 [1]): No (Agonist defined as a compound whose Emax in the ARVP16 DNA Binding Assay (Agonist mode) is >20x DMSO control)
IC50 (AR-VP16 [2]): < 1000 nM

Cc1cc(N2C(=O)C3(CCC3)N(c3ccc(C(=O)O)c(F)c3)C2=S)cnc1C#N [Compound 225, 4-(7-(6-Cyano-5-methylpyridin-3-yl)-8-oxo-6-thioxo-5,7-diazaspiro[3.4]octan-5-yl)-2-fluorobenzoic acid]
ARVP16 DNA Binding Assay (Agonist mode): Agonist? (AR-VP16 [1]): No (Agonist defined as a compound whose Emax in the ARVP16 DNA Binding Assay (Agonist mode) is >20x DMSO control)
IC50 (AR-VP16 [2]): < 1000 nM

CN1CCN(Cc2ccc(N3C(=S)N(c4cnc(C#N)c(C(F)(F)F)c4)C(=O)C34CCC4)cc2)CC1 [Compound 93, 5-(5-(4-((4-Methylpiperazin-1-yl)methyl)phenyl)-8-oxo-6-thioxo-5,7-diazaspiro[3.4]octan-7-yl)-3-(trifluoromethyl)picolinonitrile]
ARVP16 DNA Binding Assay (Agonist mode): Agonist? (AR-VP16 [1]): No (Agonist defined as a compound whose Emax in the ARVP16 DNA Binding Assay (Agonist mode) is >20x DMSO control)
IC50 (AR-VP16 [2]): > 1000 nM

N#Cc1ncc(N2C(=O)C3(CCC3)N(c3ccc(OCCCCOCc4ccccc4)c(F)c3)C2=S)cc1C(F)(F)F [Compound 136, 5-(5-(4-(4-(Benzyloxy)butoxy)-3-fluorophenyl)-8-oxo-6-thioxo-5,7-diazaspiro[3.4]octan-7-yl)-3-(trifluoromethyl)picolinonitrile]
ARVP16 DNA Binding Assay (Agonist mode): Agonist? (AR-VP16 [1]): No (Agonist defined as a compound whose Emax in the ARVP16 DNA Binding Assay (Agonist mode) is >20x DMSO control)
IC50 (AR-VP16 [2]): < 1000 nM

Cc1ccc(N2C(=S)N(c3cnc(C#N)c(C(F)(F)F)c3)C(=O)C23CCC3)cc1F [Compound 49, 5-(5-(3-Fluoro-4-methylphenyl)-8-oxo-6-thioxo-5,7-diazaspiro[3.4]octan-7-yl)-3-(trifluoromethyl)picolinonitrile]
ARVP16 DNA Binding Assay (Agonist mode): Agonist? (AR-VP16 [1]): No (Agonist defined as a compound whose Emax in the ARVP16 DNA Binding Assay (Agonist mode) is >20x DMSO control)
IC50 (AR-VP16 [2]): < 1000 nM

N#Cc1ncc(N2C(=O)C3(CCC3)N(c3ccc(OC(F)(F)F)cc3)C2=S)cc1C(F)(F)F [Compound 44, 5-(8-Oxo-6-thioxo-5-(4-(trifluoromethoxy)phenyl)-5,7-diazaspiro[3.4]octan-7-yl)-3-(trifluoromethyl)picolinonitrile]
ARVP16 DNA Binding Assay (Agonist mode): Agonist? (AR-VP16 [1]): No (Agonist defined as a compound whose Emax in the ARVP16 DNA Binding Assay (Agonist mode) is >20x DMSO control)
IC50 (AR-VP16 [2]): < 1000 nM
